Consider two compounds from patent US8669232B2, “Flavonol compounds, a bioactive extract/fraction from Ulmus wallichiana and its compounds for prevention for treatment of osteo-health related disorders” (Council of Scientific & Industrial Research, priority 2008, dated 2014).

The test system of series [1] is ovariectomized Sprague Dawley rats. Nature of the series: Uterine weight in Ovx rats (estrogen agonistic effect). Type of series: in vivo. The following applies: 1.0&5.0 mg/kg body weight, 90 days, uterine weight comparable with Ovx + vehicle. How it is done:
Ethanolic extracts of […] at the doses of 500-& 750 mg/kg body weight were given daily by oral route to Sprague Dawley (180-200 g) rats after bilateral ovariectomy (Ovx). This is the most widely used animal model for osteopenia (bone loss) mimicking human condition of post-menopausal bone loss. The extract was given in gum acacia (vehicle). Sham operated rats and Ovx rats were used as controls and given only gum acacia. Each group consisted of 10 rats and the groups were as follows: sham intact, Ovx, Ovx+500 mg/kg extract and Ovx+750 mg/kg extract. Treatment started 24 h after the surgery and continued for 90 days. After 90 days, the rats were first acclimatized and then kept in metabolic cages with no food but only water for 24 h to collect urine samples. After 24 h, rats were returned to the cages with food and water ad libitum with oral administration of the extract as before foe an additional 24 hour. Rats were then euthanized and autopsied to collect blood, bones (tibia, femur, L1-L4 vertebrae) and uterus. […] at 1 to 10 mg/kg body weight were given daily by oral route to Sprague Dawley (180-200 g) rats after bilateral ovariectomy (Ovx). This is the most widely used animal model for osteopenia (bone loss) mimicking human condition of post-menopausal bone loss. The extract was given in gum acacia (vehicle). […]

For series [2] the test system is unchanged. Nature of the series: BMD by DEXA in ovariectomized (Ovx) rats, bone loss model. Type of series: in vivo. The following applies: 90 days, compared with Ovx + vehicle; for BMD tibia head: 5 mg/kg body weight oral daily. Here is the method: Bone mineral density of femur (global, head, neck), tibia (global, head, tibio-fibular separation point) and lumber vertebra (LV1, LV2, LV3, LV4) was determined by DEXA.
(§1) K058 at 1 to 10 mg/kg body weight were given daily by oral route to Sprague Dawley (180-200 g) rats after bilateral ovariectomy (Ovx). This is the most widely used animal model for osteopenia (bone loss) mimicking human condition of post-menopausal bone loss. The extract was given in gum acacia (vehicle). Sham operated rats and Ovx rats were used as controls and given only gum acacia. Each group consisted of 10 rats and the groups were as follows: sham intact, Ovx, Ovx+1 mg/kg K058 and Ovx+5 mg/kg K058. Treatment started 24 h after the surgery and continued for 90 days. After 90 days, the rats were first acclimatized and then kept in metabolic cages with no food but only water for 24 h to collect urine samples. After 24 h, rats were returned to the cages with food and water ad libitum with oral administration of the extract as before foe an additional 24 hour. Rats were then euthanized and autopsied to collect blood, bones (tibia, femur, L1-L4 vertebrae) and uterus.
as §1, with “K012” for “K058”, “doses of 1- and 5” for “1 to 10”, “(Ovx).” for “(Ovx). This is the most widely used animal model for osteopenia (bone loss) mimicking human condition of post-menopausal bone loss.”, “K012.” for “K058.”, “for” for “foe”

[3] abbreviates: 5.0 mg/kg body weight oral daily.

As to `O=c1c(O)c(-c2ccc(O)c(O)c2)oc2cc(O)c(C3O[C@H](CO)[C@@H](O)[C@H](O)[C@H]3O)c(O)c12` (some centres unmarked) [K012, 6-Glucopyranosyl-3,3′,4′,5,7-pentahydroxyflavone], the “estrogen agonistic action at the uterine level (uterine weight)” value in series [1] is “no estrogen agonistic action”. Besides, the “BMD tibio-fibular separation point (TFSP)” value in series [2] (1.0 mg/kg body weight oral daily) was “increase”. In series [2], the BMD tibia head entry was “significantly higher”. Also, in series [2] (setting [3]), the “BMD lumber vertebra global” value is “higher” and the “BMD second lumber vertebra” value is on record as “higher”. In series [2] (5.0 mg/kg oral daily), the BMD femur neck entry is on record as “significantly higher”, the BMD tibia global result is “significantly higher” and the “BMD tibio-fibular separation point (TFSP)” value is recorded as “significantly higher”.

As for `O=C1c2c(cc(O)c([C@@H]3OC(CO)[C@@H](O)[C@H](O)C3O)c2O)O[C@@H](c2ccc(O)c(O)c2)[C@@H]1O` (stereo partly drawn) [K058, (2S,3S)-(+)-3′,4′,5,7-tetrahydroxydihydroflavonol-6-C-β-D-glucopyranoside], in series [1], the “estrogen agonistic action at the uterine level (uterine weight)” value was “no estrogen agonistic action”. In addition, the BMD tibia head entry in series [2] is given as “increased”. Besides, in series [2] (1.0&5.0 mg/kg body weight oral daily), the “BMD L4 vertebra” value is reported as “higher”. Further, in series [2] (1.0-5.0 mg/kg oral daily), the BMD femur global entry is “significantly higher”, the BMD femur neck result is listed as “significantly higher” and the BMD femur shaft result is listed as “significantly higher”.
